Test results reported in patent US7772241B2, “Variolin derivatives and their use as antitumor agents” (Pharma Mar S.A., priority 2001, dated 2010).

Assays:
[1] = tested on: SK-MEL-28; experiment: Inhibition of cells growth by colorimetric (SRB) assay, SK-MEL-28
Summary of the method: (§1)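 Read-out is sulforhodamine B protein stain (OD 490 nm) after cold TCA fixation, following 48 h continuous exposure to samples spanning 10 to 10^−8 μg/ml.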

[2] = tested on: K-562; experiment: Inhibition of cells growth by colorimetric (SRB) assay, K-562
Summary of the method: as §1

[3] = tested on: LoVo; experiment: Inhibition of cells growth by colorimetric (SRB) assay, LoVo
Summary of the method: as §1

[4] = tested on: LoVo-Dox; experiment: Inhibition of cells growth by colorimetric (SRB) assay, LoVo-Dox
Summary of the method: as §1

[5] = tested on: DU-145; experiment: Inhibition of cells growth by colorimetric (SRB) assay, DU-145
Summary of the method: as §1

[6] = tested on: IGROV-ET; experiment: Inhibition of cells growth by colorimetric (SRB) assay, IGROV-ET
Summary of the method: as §1

[7] = tested on: A-549; experiment: Inhibition of cells growth by colorimetric (SRB) assay, A-549
Summary of the method: as §1

[8] = Inhibition of cells growth by colorimetric (SRB) assay, HMEC1; settings: human, HMEC1 cells, LC50 H-MEC-1, SRB assay, 48 hours exposure
[9] = tested on: HMEC1; experiment: as above
[10] = tested on: LNCaP; experiment: Inhibition of cells growth by colorimetric (SRB) assay, LNCaP
Summary of the method: as §1

[11] = tested on: SK-OV-3; experiment: Inhibition of cells growth by colorimetric (SRB) assay, SK-OV-3
Summary of the method: as §1

[12] = tested on: IGROV-1; experiment: Inhibition of cells growth by colorimetric (SRB) assay, IGROV-1
Summary of the method: as §1

[13] = tested on: SK-BR-3; experiment: Inhibition of cells growth by colorimetric (SRB) assay, SK-BR-3
Summary of the method: as §1

[14] = tested on: HT-29; experiment: Inhibition of cells growth by colorimetric (SRB) assay, HT-29
Summary of the method: as §1

[15] = tested on: PANC-1; experiment: Inhibition of cells growth by colorimetric (SRB) assay, PANC-1
Summary of the method: as §1

Q: Which GI50 ([1]; Homo sapiens, SK-MEL-28, 48 h, read-out: GI50 MEL-28, SRB assay, 48 hours exposure) does the source give for `CSc1nccc2c(-c3cccs3)c3cccnc3n12` [Compound 60] here?
A: ≥ 33.6 µM

Q: What about the CC50 ([1]; Homo sapiens, SK-MEL-28, 48 h, read-out: LC50 MEL-28, SRB assay, 48 hours exposure) of the same compound?
A: ≥ 33.6 µM

Q: And the “TGI MEL-28” value ([1]; SRB assay, 48 hours exposure)?
A: 3.36E−05

Q: And the GI50 ([2]; Homo sapiens, K562, 48 h, read-out: GI50 K-562, SRB assay, 48 hours exposure)?
A: ≥ 33.6 µM

Q: What about the CC50 ([2]; Homo sapiens, K562, 48 h, read-out: LC50 K-562, SRB assay, 48 hours exposure) of the same compound?
A: ≥ 33.6 µM

Q: What about the “TGI K-562” value ([2]; SRB assay, 48 hours exposure) of the same compound?
A: 3.36E−05

Q: And the GI50 ([3]; Homo sapiens, LoVo, 48 h, read-out: GI50 LOVO, SRB assay, 48 hours exposure)?
A: ≥ 33.6 µM

Q: What about the CC50 ([3]; Homo sapiens, LoVo, 48 h, read-out: LC50 LOVO, SRB assay, 48 hours exposure) of the same compound?
A: ≥ 33.6 µM

Q: And the “TGI LOVO” value ([3]; SRB assay, 48 hours exposure)?
A: 3.36E−05

Q: What about the GI50 ([4]; Homo sapiens, 48 h, read-out: GI50 LOVO-DOX, SRB assay, 48 hours exposure) of the same compound?
A: ≥ 33.6 µM

Q: What about the CC50 ([4]; Homo sapiens, 48 h, read-out: LC50 LOVO-DOX, SRB assay, 48 hours exposure) of the same compound?
A: ≥ 33.6 µM

Q: And the “TGI LOVO-DOX” value ([4]; SRB assay, 48 hours exposure)?
A: 3.36E−05

Q: What about the GI50 ([5]; Homo sapiens, DU-145, 48 h, read-out: GI50 DU-145, SRB assay, 48 hours exposure) of the same compound?
A: ≥ 33.6 µM

Q: What about the CC50 ([5]; Homo sapiens, DU-145, 48 h, read-out: LC50 DU-145, SRB assay, 48 hours exposure) of the same compound?
A: ≥ 33.6 µM

Q: And the “TGI DU-145” value ([5]; SRB assay, 48 hours exposure)?
A: 3.36E−05

Q: And the GI50 ([6]; Homo sapiens, 48 h, read-out: GI50 IGROV-ET, SRB assay, 48 hours exposure)?
A: ≥ 33.6 µM

Q: And the CC50 ([6]; Homo sapiens, 48 h, read-out: LC50 IGROV-ET, SRB assay, 48 hours exposure)?
A: ≥ 33.6 µM

Q: What about the “TGI IGROV-ET” value ([6]; SRB assay, 48 hours exposure) of the same compound?
A: 3.36E−05

Q: And the GI50 ([7]; Homo sapiens, A549, 48 h, read-out: GI50 A-549, SRB assay, 48 hours exposure)?
A: 22.6 µM

Q: What about the CC50 ([7]; Homo sapiens, A549, 48 h, read-out: LC50 A-549, SRB assay, 48 hours exposure) of the same compound?
A: ≥ 33.6 µM

Q: And the “TGI A-549” value ([7]; SRB assay, 48 hours exposure)?
A: 3.36E−05

Q: And the CC50 at 48 h [8]?
A: ≥ 33.6 µM

Q: And the GI50 ([9]; Homo sapiens, HMEC-1, 48 h, read-out: GI50 H-MEC-1, SRB assay, 48 hours exposure)?
A: 22.6 µM

Q: And the “TGI H-MEC-1” value ([9]; SRB assay, 48 hours exposure, in M (unit assumed))?
A: 3.36E−05

Q: And the GI50 ([10]; Homo sapiens, LNCaP, 48 h, read-out: GI50 LN-caP, SRB assay, 48 hours exposure)?
A: ≥ 33.6 µM

Q: And the CC50 ([10]; Homo sapiens, LNCaP, 48 h, read-out: LC50 LN-caP, SRB assay, 48 hours exposure)?
A: ≥ 33.6 µM

Q: What about the “TGI LN-caP” value ([10]; SRB assay, 48 hours exposure) of the same compound?
A: 3.36E−05

Q: What about the GI50 ([11]; Homo sapiens, SK-OV-3, 48 h, read-out: GI50 SKOV-3, SRB assay, 48 hours exposure) of the same compound?
A: ≥ 33.6 µM

Q: What about the CC50 ([11]; Homo sapiens, SK-OV-3, 48 h, read-out: LC50 SKOV-3, SRB assay, 48 hours exposure) of the same compound?
A: ≥ 33.6 µM

Q: What about the “TGI SKOV-3” value ([11]; SRB assay, 48 hours exposure) of the same compound?
A: 3.36E−05

Q: And the GI50 ([12]; Homo sapiens, IGROV-1, 48 h, read-out: GI50 IGROV, SRB assay, 48 hours exposure)?
A: 10.8 µM

Q: What about the CC50 ([12]; Homo sapiens, IGROV-1, 48 h, read-out: LC50 IGROV, SRB assay, 48 hours exposure) of the same compound?
A: ≥ 33.6 µM

Q: What about the “TGI IGROV” value ([12]; SRB assay, 48 hours exposure) of the same compound?
A: 3.36E−05

Q: And the GI50 ([13]; Homo sapiens, SK-BR-3, 48 h, read-out: GI50 SK-BR-3, SRB assay, 48 hours exposure)?
A: 0.24 µM

Q: What about the CC50 ([13]; Homo sapiens, SK-BR-3, 48 h, read-out: LC50 SK-BR-3, SRB assay, 48 hours exposure) of the same compound?
A: 3.36 µM

Q: What about the “TGI SK-BR-3” value ([13]; SRB assay, 48 hours exposure) of the same compound?
A: 9.95E−07

Q: What about the GI50 ([14]; Homo sapiens, HT-29, 48 h, read-out: GI50 HT-29, SRB assay, 48 hours exposure) of the same compound?
A: ≥ 33.6 µM

Q: What about the CC50 ([14]; Homo sapiens, HT-29, 48 h, read-out: LC50 HT-29, SRB assay, 48 hours exposure) of the same compound?
A: ≥ 33.6 µM

Q: What about the “TGI HT-29” value ([14]; SRB assay, 48 hours exposure) of the same compound?
A: 3.36E−05

Q: And the GI50 ([15]; Homo sapiens, PANC-1, 48 h, read-out: GI50 PANC-1, SRB assay, 48 hours exposure)?
A: ≥ 33.6 µM

Q: What about the CC50 ([15]; Homo sapiens, PANC-1, 48 h, read-out: LC50 PANC-1, SRB assay, 48 hours exposure) of the same compound?
A: ≥ 33.6 µM

Q: What about the “TGI PANC-1” value ([15]; SRB assay, 48 hours exposure) of the same compound?
A: 3.36E−05
